Patent US10501817B2, “Process for the manufacture of co-crystallized sucrose natural sweeteners and the products thereof” (IMPERIAL SUGAR COMPANY, priority 2010, dated 2019)

What was measured:
[1] = Taste testing of sweetener compositions in water by trained descriptive panel; assay type: in vivo, human; conditions: in water at room temperature; 12-point scale; aftertaste at 30 seconds
Excerpt: A panel of trained and experienced descriptive panelists (Food Marketing Support Services, Inc.) tasted, described and documented sensory behavior of selected sweetener compositions in water at ambient (room) temperature. The sweetener samples tested were: sugar (100%; Imperial Sugar); Truvia (100%), a consumer brand Stevia sweetener containing a mixture erythritol and Rebiana; Reb-A 97 (100%; Pure Circle), a sugar (75% reduction)—rebaudioside A blended or granulized mixture; a sugar (50% reduction)—rebaudioside A blended or granulized mixture; a sugar/rebaudioside A co-crystallization product in accordance with the instantly described process and the resultant product with a 50% calorie reduction (Co-Crystal (50% Reduction)); and, a sugar/rebaudioside A co-crystallization product in accordance with the instantly described process and the resultant product with a 75% calorie reduction (Co-Crystal (75% Reduction).
Sample Preparation: On the day of the testing panel, a predetermined weight of sugar or sweetener was weighed out. […]
The beaker is gently swirled five (5) times, and the watch glass cover is removed. […] Sweetness was evaluated relative to standardized concentrations of sucrose in water. Samples were also evaluated for character nuances and quantifying attribute intensities such as residual mouth sensations and aftertastes, using a 12-point scale. […]

[2] = cited from earlier work; for times sweeter than sucrose: sweetness relative to sucrose/sugar

| Structure (SMILES) | flavor/taste profile compared with pure sugar [1] | astringency, bitterness and aftertaste among diterpenoid glycoside sweeteners of Stevia extracts ([2]; in vivo) | times sweeter than sucrose [2] |
| --- | --- | --- | --- |
| C=C1C[C@@]23CC[C@H]4[C@@](C)(CCC[C@@]4(C)C(=O)O[C@@H]4O[C@H](CO)[C@@H](O)[C@H](O)[C@H]4O)[C@@H]2CC[C@]1(O[C@@H]1O[C@H](CO)[C@@H](O)[C@H](O[C@@H]2O[C@H](CO)[C@@H](O)[C@H](O)[C@H]2O)[C@H]1O[C@@H]1O[C@H](CO)[C@@H](O)[C@H](O)[C@H]1O)C3 [rebaudioside A] | most extreme flavor profile across the array | the least astringent, the least bitter, and with the least persistent aftertaste | 200-300 times |
| C=C1C[C@@]23CC[C@H]4[C@@](C)(CCC[C@@]4(C)C(=O)O[C@@H]4O[C@H](CO)[C@@H](O)[C@H](O)[C@H]4O)[C@@H]2CC[C@]1(O[C@@H]1O[C@H](CO)[C@@H](O)[C@H](O)[C@H]1O[C@@H]1O[C@H](CO)[C@@H](O)[C@H](O)[C@H]1O)C3 [stevioside] |  |  | about 200 times |
